Assay results reported in patent US20250041277A1, “METHODS AND DOSING REGIMENS COMPRISING A CDK2 INHIBITOR AND A CDK4 INHIBITOR FOR TREATING CANCER” (PFIZER INC., priority 2021, published 2025).

What was measured:
NCIH2023 = test: Combinatorial activity in LUAD cell line NCIH2023; type: cell-based; conditions: NCI-H2023; NCIH2023, WT; single agent; read-out: (nM) s.a.
Protocol: (§1) Combinatorial activity of PF-07104091 and PF-07220060 was assessed in LUADs as single agents (s.a.) or in combination.

[1] = system: NCI-H1792 lung adenocarcinoma (LUAD) cells; test: Spheroid growth inhibition (SGI) assay, NCI-H1792; type: cell-based; conditions: NCI-H1792 spheroids; 30 nM palbociclib, 300 nM PF-07220060, 300 nM PF-07104091; 14 days
Protocol: (§2) NCI-H1792 and NCI-H23 lung adenocarcinoma (LUAD) cells lines were obtained from ATCC and maintained in RPMI 1640 medium supplemented with 10% fetal bovine serum and penicillin-streptomycin as per ATCC guidelines. Cells were maintained in humidified incubator at 37° C. with 5% CO2.
(§3) Spheroid assays were performed in 96 well ultralow attachment plates (ULA-96U) from Nexcelom & Thermo Fisher Scientific. […] To aid spheroid formation, dispensed cells were centrifuged at 220×g for 6 minutes in the ultralow attachment plates and allowed to form compact spheroids for 4 days prior to the initiation of treatment. […] DMSO (0.01%) was used as the vehicle control. DMSO and all compounds were diluted in cell medium. Medium and compounds were replenished twice per week, with 3 and 4-day intervals. Replenishment was executed by aspirating 150 μL of medium per well without disturbing the spheroid and then adding the same volume of premixed medium/compound solution to spheroids. Spheroid diameter was quantified immediately following each medium change twice a week (on every 3rd or 4th day) throughout the duration of the assay.
(§4) Average diameters of tumor spheroids were plotted in GraphPad Prism 8 and the AUC calculated. AUC baseline was determined by the average tumor spheroid diameter at Day 0 in the vehicle (DMSO) controls. Spheroid growth inhibition, or SGI, was calculated as follows: SGI=(1−AUC treatment/AUC DMSO)×100%. SGI for all treatment arms was derived at the timepoint when the vehicle (DMSO) treated spheroids reach their maximal diameter (usually close to 1 mm but this can differ among cell lines); this corresponds to the last time point taken for the vehicle (DMSO) treated spheroids. SEM was calculated based on n=10 to 12 wells per test group.
(§5) Growth of lung adenocarcinoma multicellular tumor spheroids (MCTS) was monitored over time to assess: (i) amplitude of response (SGI) and (ii) duration of response to the CDK4 inhibitor PF-07220060 as a single agent, and in combination with the CDK2 inhibitor PF-07104091.

NCI-2291 = test: Combinatorial activity in LUAD cell line NCI-2291; type: cell-based; conditions: NCI-2291, KRAS G12C/F/V; single agent; read-out: (nM) s.a.
Protocol: as §1

ABC1 = test: Combinatorial activity in LUAD cell line ABC1; type: cell-based; conditions: Homo sapiens, ABC-1; ABC1, WT; single agent; read-out: (nM) s.a.
Protocol: as §1

[2] = system: T47D breast cancer cell line; test: Cell proliferation combination assay (Loewe Volume, CI), T47D; type: cell-based, Human; conditions: T-47D cells; for Best CI: Best CI Level 70
Protocol: (§6) The combination effects of PF-07104091 and PF-07220060 were evaluated in a cell proliferation assay with MCF7 and T47D BC cell lines.
(§7) Drug combinations were analyzed using the Dose Equivalence Principle, and the Loewe Volume score. When modeling synergy using the Dose Equivalence Principle, the Loewe Volume score for the combination compounds should be greater than the compound self-cross controls, and the Combination Index (C) score for the combination compounds should be less than compound self-cross controls. […] The isobolograms set to an anti-proliferation threshold at 70% confirmed a synergistic response.

[3] = system: NCI-H23 lung adenocarcinoma (LUAD) cells; test: Spheroid growth inhibition (SGI) assay, NCI-H23; type: cell-based; conditions: NCI-H23 spheroids; 30 nM palbociclib, 300 nM PF-07220060, 300 nM PF-07104091; 14 days
Protocol: as §2, §3, §4, §5

[4] = system: MCF7 breast cancer cell line; test: Cell proliferation combination assay (Loewe Volume, CI), MCF7; type: cell-based, Human; conditions: MCF7 cells; for Best CI: Best CI Level 70
Protocol: as §6, §7

[5] = system: HCC1428 breast cancer model; test: In vivo efficacy, HR+/HER2− HCC1428 breast cancer model (Example 3); parameters: species or system NSG mice; conditions: HCC1428, Day 42; PO BID: PF-07104091 150 mpk, PF-07220060 60 mpk, palbociclib 10 mpk
Protocol: Female NSG mice (Jackson Lab) were subcutaneously implanted with fragment (27 mm^3 to 64 mm^3 size) into the dorsal region. All mice for T47D, HCC1428 and ST941 PBR studies were supplemented with 8.5 μg/mL estradiol water (β-Estradiol Sigma-Aldrich, cat #E2758-5G) and gave ad libitum till end of study. For the in vivo efficacy studies, tumor volume and body weights were measured twice a week. Tumor volume was calculated using the [(Length×Width×Width)/2)] formula. TGI was calculated as 100*(1−ΔT/ΔC). The ΔC (ΔT) was obtained by subtracting the mean tumor burden in the vehicle (treated) group on the first day of treatment (Day 0) from the mean tumor burden in vehicle (treated) group on the assessment day. Statistical analysis was performed using ANCOVA when the mean tumor volume in vehicle treated mice reached tumor cutoff size.
The HCC1428 model was established by implanting passage 4 tumor fragments into recipient mice. To establish the HCC1428 donor mice, tumor cells (5×10^6 cell/mouse with 50% Cultrex® Basement Membrane Matrix) were subcutaneously implanted in female NSG mice. Once reaching a range of 700 to 800 mm^3, donor tumors were subsequently transplanted into secondary recipient mice for a study expansion. […] PF-07104091 (lot 016), PF-07220060 (lot 019) and PD-0332991 (lot GR08498) were administered (PO.) BID (7 hr apart). All mice received treatment continuously until Day 42. TGI was assessed on Day 42 post first dose.

CALU6 = test: Combinatorial activity in LUAD cell line CALU6; type: cell-based; conditions: Homo sapiens, Calu-6; CALU6, WT; single agent; read-out: (nM) s.a.
Protocol: as §1

NCIH2126 = test: Combinatorial activity in LUAD cell line NCIH2126; type: cell-based; conditions: Homo sapiens, NCI-H2126; NCIH2126, WT; single agent; read-out: (nM) s.a.
Protocol: as §1

NCIH2228 (RB mut) = test: Combinatorial activity in LUAD cell line NCIH2228; type: cell-based; conditions: Homo sapiens, NCI-H2228, WT, single agent, read-out: (nM) s.a.
Protocol: as §1

A549 = test: Combinatorial activity in LUAD cell line A549; type: cell-based; conditions: Homo sapiens; A549, WT; single agent; read-out: (nM) s.a.
Protocol: as §1

NCI-H2347 = test: Combinatorial activity in LUAD cell line NCI-H2347; type: cell-based; conditions: Homo sapiens; NCI-H2347, KRAS L19F; single agent; read-out: (nM) s.a.
Protocol: as §1

| Structure (SMILES) | IC50 (NCIH2023) | SGI (%) [1] | IC50 (NCI-2291) | IC50 (ABC1) | Loewe Volume [2] | Best CI [2] | SGI (%) [3] | Loewe Volume [4] | Best CI [4] | TGI % [5] | IC50 (CALU6) | IC50 (NCIH2126) | IC50 (NCIH2228 (RB mut)) | IC50 (A549) | IC50 (NCI-H2347) |
| --- | --- | --- | --- | --- | --- | --- | --- | --- | --- | --- | --- | --- | --- | --- | --- |
| CC(C)n1c(C(C)(C)O)nc2c(F)cc(-c3nc(N[C@@H]4CCOC[C@H]4O)ncc3Cl)cc21 [PF-07220060, 1,5-anhydro-3-({5-chloro-4-[4-fluoro-2-(2-hydroxypropan-2-yl)-1-(propan-2-yl)-1H-benzimidazol-6-yl]pyrimidin-2-yl}amino)-2,3-dideoxy-D-threo-pentitol] | 310 nM | 81% | 138 nM | 408 nM | 0.00 | 0.97 | 35% | −0.02 | 1.06 | 89% | 155 nM | 255 nM | 839 nM | 814 nM | 70 nM |
| COCc1cc(C(=O)Nc2cc([C@H]3CC[C@@H](OC(=O)NC(C)C)C3)[nH]n2)n(C)n1 [PF-07104091, (1R,3S)-3-[3-({[3-(methoxymethyl)-1-methyl-1H-pyrazol-5-yl]carbonyl}amino)-1H-pyrazol-5-yl]cyclopentyl propan-2-ylcarbamate] | > 450 nM | 12% | ~1200 nM | 716 nM | 0.01 | 0.95 | 9% | −0.08 | 1.04 | 95% | 268 nM | 372 nM | ~1000 nM | 574 nM | 364 nM |
